Measurements from patent publication US11351178B2, “Selective HDAC6 inhibitors” (ITALFARMACO S.P.A., priority 2017, dated 2022).

Columns and labels:
HDAC2 = biological target: T1, HDAC2 (Homo sapiens, UniProt Q92769); experiment: Enzymatic test HDAC2; format: biochemical; conditions: Table 3
T1 construct: purchased BPS 50002

HDAC7 = biological target: T2, HDAC7 (Homo sapiens, UniProt Q8WUI4); experiment: Enzymatic test HDAC7; format: biochemical; conditions: Table 3
T2 construct: purchased BPS 50007
T2 sequence (Q8WUI4 518-952 limits assumed): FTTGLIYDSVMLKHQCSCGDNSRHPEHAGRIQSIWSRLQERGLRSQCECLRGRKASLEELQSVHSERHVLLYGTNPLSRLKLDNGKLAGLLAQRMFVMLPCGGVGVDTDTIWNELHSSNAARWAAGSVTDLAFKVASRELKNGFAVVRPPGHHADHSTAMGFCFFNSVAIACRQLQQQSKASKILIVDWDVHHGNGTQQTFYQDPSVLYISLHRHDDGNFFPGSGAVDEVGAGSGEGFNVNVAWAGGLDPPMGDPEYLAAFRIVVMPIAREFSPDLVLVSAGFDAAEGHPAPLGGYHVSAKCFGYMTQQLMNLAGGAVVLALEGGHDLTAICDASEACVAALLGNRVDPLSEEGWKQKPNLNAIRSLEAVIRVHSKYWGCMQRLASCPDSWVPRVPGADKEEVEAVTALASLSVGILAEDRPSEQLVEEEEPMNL
Procedure: (§1) After a period of incubation at 30° C. (incubation times vary for different isoforms and are shown in table 1) 25 μL of solution containing the substrate were added. As substrate, FLUOR DE LYS® deacetylase substrate (Enzo Life Sciences, cat #BML-K1104, FdL), FLUOR DE LYS®-Green substrate (Enzo Life Sciences, cat #BML-K1572 FdL_G) and trifluoroacetyl-L-lysine (Tfal)-2× concentrated solution in 25 mM Tris-HCl, pH 8, 130 mM NaCl 0.05% Tween-20 10% glycerol) were used. Following a reaction period at 30° C.

HDAC11 = biological target: T3, HDAC11 (Homo sapiens, UniProt Q96DB2); experiment: Enzymatic test HDAC11; format: biochemical; conditions: Table 3
T3 construct: purchased BML SE560
T3 sequence (Q96DB2 1-347): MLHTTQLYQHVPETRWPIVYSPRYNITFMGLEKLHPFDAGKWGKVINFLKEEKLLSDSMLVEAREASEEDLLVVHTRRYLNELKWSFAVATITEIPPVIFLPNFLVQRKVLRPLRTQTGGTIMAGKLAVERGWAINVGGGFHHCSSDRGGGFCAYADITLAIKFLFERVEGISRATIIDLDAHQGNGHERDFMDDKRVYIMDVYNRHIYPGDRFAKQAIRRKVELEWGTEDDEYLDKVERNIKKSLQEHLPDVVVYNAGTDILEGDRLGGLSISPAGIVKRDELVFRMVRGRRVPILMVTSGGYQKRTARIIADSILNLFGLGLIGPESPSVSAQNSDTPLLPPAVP
Procedure: as §1

[1] = tested on: regulatory T cell (Treg, CD4+CD25+) suppression activity; experiment: T CD4 lymphocyte proliferation mediated by mouse regulatory T cells suppression assay; format: cell-based
Procedure: To evaluate the ability of the molecules under this patent to increase regulatory T cell (Treg, CD4^+CD25^+) suppression activity a T-cell (responder T cells, Teff) proliferation suppression assay was used. Treg cells at different concentrations were cultured with Teff cells (CD4^+CD25^−) in the presence of proliferative stimuli. T cells need of two stimuli to proliferate: the first given by the recognition of antigen associated with MHC by T cell receptor (TCR) and the second one derived from co-stimulatory molecules such as CD28. In the absence of a specific antigen, TCR activation can take place with an antibody recognizing one of the composing subunits, CD3ε. In this assay, anti-CD3ε monoclonal antibody and CD4 T cell depleted splenocytes were used as activator stimuli. Therefore, the ability to reduce Teff cells proliferation by Tregs in the presence or absence of HDAC6 inhibitors was assessed.
Treg and Teff cells were separated using the Treg isolation kit based on magnetic beads separation technique (Miltenyi Biotec) through an initial negative selection and a final positive selection process.
Single cell suspension was obtained from spleen of C57BL/6 mice using a 70 μm strainer.
Cell suspension was treated with ACK buffer to lyse red blood cells and then centrifuged for 5 minutes at 300×g. After centrifugation, the cells were resuspended in PBS (Phosphate Buffered Saline, Gibco) and counted. Subsequently, splenocytes were resuspended in a buffer consisting of PBS, 0.5% BSA and 2 mM EDTA.
To proceed with the first step of Treg separation, CD4 negative cells were indirectly magnetically labeled with a cocktail of biotin-conjugated antibodies against CD8a, CD11b, CD45R, CD49b, Ter-119 and Anti-Biotin MicroBeads CD4+ cells were thus obtained by negative selection as flow-through of a magnetic MACS column.
Cells bound to microbeads were eluted and conserved for their use as antigen presenting cells (APC) in the proliferation assay.
In the second step of Treg purification, pre-enriched CD4+ cells were labelled with an R-phycoerythrin (PE)-conjugated anti-CD25 antibody that preferentially binds to Treg cells and magnetic beads coupled with an anti PE antibody. The cell suspension was then loaded on a column. The Teff cells pass through the column without binding (negative selection), while beads-bound Treg cells adhere through the magnetic beads (positive selection). Treg cells were then eluted from the column by buffer flow using a plunger. Treg and Teff cell purification is summarized in FIG. 6. • CD4− cells from first positive selection as APC • Treg CD4+ CD25+ as suppressor cells • Teff CD4+ CD25− as responder/proliferating cells
CD4^− cells were treated with mitomycin C (50 μg/ml, Sigma) for 30 min at 37° C. to prevent their proliferation They were then resuspended at a concentration of 4.0×10^5/50 μl in complete medium (RPMI, FBS10%, penicillin/streptomycin 1×, 50 μM beta mercaptoethanol). Teffs were labeled with carboxy fluorescein succinimidyl ester (CFSE) at a concentration of 2 μM in PBS at 37° C., and after 10 minutes incubation, the reaction was blocked with a 10% FBS PBS solution. CFSE labelling allows covalent modification of Teff cell to analyse their proliferation by fluorescence dilution. The labelled Teffs were then centrifuged and resuspended at the final concentration of 5.0×10^4/50 μl in complete medium. Finally, the Tregs obtained by purification were diluted to the final concentration of 5.0×10^4/50 μl in complete medium.
Then a co-culture of Teff (5.0×10^4), T CD4^− (4.0×10^5) was prepared and Treg cells in different ratios (1:1, 1:2, 1:4, 1:8 ratio Teff to Treg cells) were added thereto. The test compounds at different concentrations or DMSO vehicle were added to the cell suspension. Finally, an anti-CD3ε monoclonal antibody (Miltenyi Biotec) was added at a concentration of 1 μg/ml. Cells were plated in flat bottom 96-well plates and each condition was set up in a technical duplicate. […]

T1 sequence (Q92769 whole entry): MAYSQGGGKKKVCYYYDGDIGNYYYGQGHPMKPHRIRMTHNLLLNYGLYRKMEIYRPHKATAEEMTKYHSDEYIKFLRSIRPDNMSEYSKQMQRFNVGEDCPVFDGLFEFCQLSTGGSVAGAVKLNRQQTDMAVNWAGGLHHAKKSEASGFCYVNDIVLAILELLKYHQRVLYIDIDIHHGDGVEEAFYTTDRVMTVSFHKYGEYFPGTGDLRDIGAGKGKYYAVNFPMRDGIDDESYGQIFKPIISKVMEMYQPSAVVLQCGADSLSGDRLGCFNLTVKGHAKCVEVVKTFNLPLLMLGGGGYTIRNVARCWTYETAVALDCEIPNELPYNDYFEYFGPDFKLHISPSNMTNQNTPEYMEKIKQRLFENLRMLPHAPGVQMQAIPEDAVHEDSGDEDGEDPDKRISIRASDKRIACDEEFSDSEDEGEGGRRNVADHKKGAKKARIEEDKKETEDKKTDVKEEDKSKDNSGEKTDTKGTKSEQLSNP

SMILES | IC50 (HDAC2) [nM] | IC50 (HDAC7) [nM] | IC50 (HDAC11) [nM] | RS (relative T-reg suppression, AUC drug/AUC control) ([1]; concentration 1 μM) | RS (relative T-reg suppression, AUC drug/AUC control) ([1]; concentration 0.5 μM)
CCN(CC)S(=O)(=O)c1cccc(-c2nnc(Sc3ccc(C(=O)NO)cc3)n2C)c1 [comp. 66, 4-[[5-[3-(diethylsulfamoyl)phenyl]-4-methyl-1,2,4-triazol-3-yl]sulfanyl]benzenecarbohydroxamic acid] | 1040 | 214 | 1010 | 2.6 | 
CN(C)c1cccc(-c2nnc(Sc3ccc(C(=O)NO)cc3)n2C)c1 [comp. 77, 4-[[5-[3-(dimethylamino)phenyl]-4-methyl-1,2,4-triazol-3-yl]sulfanyl]benzenecarbohydroxamic acid] | 5230 | 1360 | 1440 | 2.4 | 
O=C(NO)c1cc(F)c(Cn2nnc(-c3scc4c3OCCO4)n2)c(F)c1 [comp. 79, 4-[[5-(2,3-dihydrothieno[3,4-b][1,4]dioxin-5-yl)tetrazol-2-yl]methyl]-3,5-difluoro-benzenecarbohydroxamic acid] | 6750 | 1310 | 659 | 1.7 | 
Cc1cc(-c2nnc(Sc3ccc(C(=O)NO)cc3)n2C)nn1C [comp. 85, 4-[[5-(1,5-dimethylpyrazol-3-yl)-4-methyl-1,2,4-triazol-3-yl]sulfanyl]benzenecarbohydroxamic acid] | 1700 | 514 | 557 | 3.8 | 3.0
